Measured values published in US6525001B1, “Substituted pyrimidine and pyridine herbicides” (Mid-American Commercialization Corporation, priority 1997, dated 2003).

Columns and labels:
Assay type in all cases: in vivo
Set-up in all cases: key: 0 is no effect; 10 is complete control
[1] = test system: bedstraw (Galium aparine); test: Test B pre-/postemergence
Method in brief: (§1)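 Seeds were planted and sprayed preemergence, while plants at 2 to 18 cm (1- to 4-leaf stage) were sprayed postemergence at the same time, with test chemical in a non-phytotoxic solvent mixture containing surfactant. After twelve to sixteen days in a greenhouse, injury was rated visually against untreated controls on a 0–10 scale.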

[2] = test system: blackgrass (Alopecurus myosuroides); test: Test B pre-/postemergence
Method in brief: as §1

[3] = test system: broadleaf signalgrass (Brachiaria decumbens); test: Test B pre-/postemergence
Method in brief: as §1

[4] = test system: cocklebur (Xanthium strumarium); test: Test B pre-/postemergence
Method in brief: as §1

corn (Zea mays) = test: Test B pre-/postemergence
Method in brief: as §1

[5] = test system: crabgrass (Digitaria sanguinalis); test: Test B pre-/postemergence
Method in brief: as §1

[6] = test system: giant foxtail (Setaria faberii); test: Test B pre-/postemergence
Method in brief: as §1

[7] = test system: momingglory (Ipomoea hederacea); test: Test B pre-/postemergence
Method in brief: as §1

[8] = test system: pigweed (Amaranthus retroflexus); test: Test B pre-/postemergence
Method in brief: as §1

[9] = test system: purple nutsedge (Cyperus rotundus); test: Test B pre-/postemergence
Method in brief: as §1

rape (Brassica napus) = test: Test B pre-/postemergence
Method in brief: as §1

soybean (Glycine max) = test: Test B pre-/postemergence
Method in brief: as §1

[10] = test system: sugar beet (Beta vulgaris); test: Test B pre-/postemergence
Method in brief: as §1

[11] = test system: velvetleaf (Abutilon theophrasti); test: Test B pre-/postemergence
Method in brief: as §1

[12] = test system: wheat (Triticum aestivum); test: Test B pre-/postemergence
Method in brief: as §1

wild oat (Avena fatua) = test: Test B pre-/postemergence
Method in brief: as §1

[13] = test system: bamyardgrass (Echinochloa crus-galli); test: Test B flood test
Method in brief: (§2)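 Plants were grown to the 2-leaf stage before treatment with test chemical, then held in a greenhouse for twelve to sixteen days. Injury was visually rated against untreated controls on a 0–10 scale, where 0 is no effect and 10 is complete control.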

[14] = test system: duck salad (Heteranthera limosa); test: Test B flood test
Method in brief: as §2

rice (Oryza sativa) = test: Test B flood test
Method in brief: as §2

[15] = test system: smallflower flatsedge (Cyperus difformis); test: Test B flood test
Method in brief: as §2

[16] = Preemergence, Rate 62 g/ha, scale of 0 to 10
[17] = Rate 62 g/ha, Postemergence (flood test)
[18] = Rate 125 g/ha, Postemergence section (flood test species)
[19] = Rate 250 g/ha, Postemergence (flood test species)

O=C(c1cccc(C(F)(F)F)c1)c1ccnc(-n2ccc(C(F)(F)F)n2)n1 [Compound 70] was tested, and the “Plant response rating, Bedstraw” value [1, 16] was 0, the “Bedstraw plant response rating” value ([1]; Rate 62 g/ha, Postemergence) was 1 and the “Bedstraw plant response rating” value ([1]; Rate 125 g/ha, Postemergence) was 1. For the same compound, the “Plant response rating, Bedstraw” value ([1]; Rate 125 g/ha, Preemergence) was 0, the “Plant response rating, Bedstraw” value ([1]; Rate 250 g/ha, Postemergence) was 1 and the “Plant response rating, Bedstraw” value ([1]; Rate 250 g/ha, Preemergence) was 0. The “Plant response rating, Blackgrass” value [2, 16] was 0, the “Blackgrass plant response rating” value ([2]; Rate 62 g/ha, Postemergence) was 0 and the “Blackgrass plant response rating” value ([2]; Rate 125 g/ha, Postemergence) was 0. The “Plant response rating, Blackgrass” value ([2]; Rate 125 g/ha, Preemergence) was 0, the “Plant response rating, Blackgrass” value ([2]; Rate 250 g/ha, Postemergence) was 0 and the “Plant response rating, Blackgrass” value ([2]; Rate 250 g/ha, Preemergence) was 0. The “B. signalgrass plant response rating” value ([3]; Rate 62 g/ha, Postemergence) was 0, the “B. signalgrass plant response rating” value ([3]; Rate 62 g/ha, Preemergence) was 0 and the “B. signalgrass plant response rating” value ([3]; Rate 125 g/ha, Postemergence) was 0. The “Plant response rating, B. signalgrass” value ([3]; Rate 125 g/ha, Preemergence) was 0, the “Plant response rating, B. signalgrass” value ([3]; Rate 250 g/ha, Postemergence) was 1 and the “Plant response rating, B. signalgrass” value ([3]; Rate 250 g/ha, Preemergence) was 0. The “Plant response rating, Cocklebur” value [4, 16] was 0, the “Cocklebur plant response rating” value ([4]; Rate 62 g/ha, Postemergence) was 1 and the “Cocklebur plant response rating” value ([4]; Rate 125 g/ha, Postemergence) was 2. For the same compound, the “Plant response rating, Cocklebur” value ([4]; Rate 125 g/ha, Preemergence) was 0, the “Plant response rating, Cocklebur” value ([4]; Rate 250 g/ha, Postemergence) was 2 and the “Plant response rating, Cocklebur” value ([4]; Rate 250 g/ha, Preemergence) was 0. For the same compound, the “Plant response rating, Corn” value (corn (Zea mays); [16]) was 0, the “Corn plant response rating” value (corn (Zea mays); Rate 62 g/ha, Postemergence) was 1 and the “Corn plant response rating” value (corn (Zea mays); Rate 125 g/ha, Postemergence) was 1. The “Plant response rating, Corn” value (corn (Zea mays); Rate 125 g/ha, Preemergence) was 0, the “Plant response rating, Corn” value (corn (Zea mays); Rate 250 g/ha, Postemergence) was 2 and the “Plant response rating, Corn” value (corn (Zea mays); Rate 250 g/ha, Preemergence) was 0. For the same compound, the “Plant response rating, Crabgrass” value [5, 16] was 0, the “Crabgrass plant response rating” value ([5]; Rate 62 g/ha, Postemergence) was 0 and the “Crabgrass plant response rating” value ([5]; Rate 125 g/ha, Postemergence) was 1. The “Plant response rating, Crabgrass” value ([5]; Rate 125 g/ha, Preemergence) was 0, the “Plant response rating, Crabgrass” value ([5]; Rate 250 g/ha, Postemergence) was 1 and the “Plant response rating, Crabgrass” value ([5]; Rate 250 g/ha, Preemergence) was 0. The “Plant response rating, Giant foxtail” value [6, 16] was 0, the “Giant foxtail plant response rating” value ([6]; Rate 62 g/ha, Postemergence) was 0 and the “Giant foxtail plant response rating” value ([6]; Rate 125 g/ha, Postemergence) was 0. The “Plant response rating, Giant foxtail” value ([6]; Rate 125 g/ha, Preemergence) was 0, the “Plant response rating, Giant foxtail” value ([6]; Rate 250 g/ha, Postemergence) was 0 and the “Plant response rating, Giant foxtail” value ([6]; Rate 250 g/ha, Preemergence) was 0. For the same compound, the “Plant response rating, Morningglory” value [7, 16] was 0, the “Morningglory plant response rating” value ([7]; Rate 62 g/ha, Postemergence) was 1 and the “Morningglory plant response rating” value ([7]; Rate 125 g/ha, Postemergence) was 1. The “Plant response rating, Morningglory” value ([7]; Rate 125 g/ha, Preemergence) was 0, the “Plant response rating, Morningglory” value ([7]; Rate 250 g/ha, Postemergence) was 2 and the “Plant response rating, Morningglory” value ([7]; Rate 250 g/ha, Preemergence) was 0. The “Plant response rating, Redroot pigweed” value [8, 16] was 0, the “Redroot pigweed plant response rating” value ([8]; Rate 62 g/ha, Postemergence) was 0 and the “Redroot pigweed plant response rating” value ([8]; Rate 125 g/ha, Postemergence) was 2. For the same compound, the “Plant response rating, Redroot pigweed” value ([8]; Rate 125 g/ha, Preemergence) was 0, the “Plant response rating, Redroot pigweed” value ([8]; Rate 250 g/ha, Postemergence) was 3 and the “Plant response rating, Redroot pigweed” value ([8]; Rate 250 g/ha, Preemergence) was 0. For the same compound, the “Plant response rating, Nutsedge” value [9, 16] was 0, the “Nutsedge plant response rating” value ([9]; Rate 62 g/ha, Postemergence) was 0 and the “Nutsedge plant response rating” value ([9]; Rate 125 g/ha, Postemergence) was 0. For the same compound, the “Plant response rating, Nutsedge” value ([9]; Rate 125 g/ha, Preemergence) was 0, the “Plant response rating, Nutsedge” value ([9]; Rate 250 g/ha, Postemergence) was 0 and the “Plant response rating, Rape” value (rape (Brassica napus); [16]) was 0. The “Rape plant response rating” value (rape (Brassica napus); Rate 62 g/ha, Postemergence) was 0, the “Rape plant response rating” value (rape (Brassica napus); Rate 125 g/ha, Postemergence) was 1 and the “Plant response rating, Rape” value (rape (Brassica napus); Rate 125 g/ha, Preemergence) was 0. For the same compound, the “Plant response rating, Rape” value (rape (Brassica napus); Rate 250 g/ha, Postemergence) was 1, the “Plant response rating, Rape” value (rape (Brassica napus); Rate 250 g/ha, Preemergence) was 0 and the “Plant response rating, Soybean” value (soybean (Glycine max); [16]) was 0. The “Soybean plant response rating” value (soybean (Glycine max); Rate 62 g/ha, Postemergence) was 1, the “Soybean plant response rating” value (soybean (Glycine max); Rate 125 g/ha, Postemergence) was 2 and the “Plant response rating, Soybean” value (soybean (Glycine max); Rate 125 g/ha, Preemergence) was 0. The “Plant response rating, Soybean” value (soybean (Glycine max); Rate 250 g/ha, Postemergence) was 3, the “Plant response rating, Soybean” value (soybean (Glycine max); Rate 250 g/ha, Preemergence) was 0 and the “Plant response rating, Sugarbeets” value [10, 16] was 0. The “Sugarbeets plant response rating” value ([10]; Rate 62 g/ha, Postemergence) was 0, the “Sugarbeets plant response rating” value ([10]; Rate 125 g/ha, Postemergence) was 1 and the “Plant response rating, Sugarbeets” value ([10]; Rate 125 g/ha, Preemergence) was 0. For the same compound, the “Plant response rating, Sugarbeets” value ([10]; Rate 250 g/ha, Postemergence) was 2, the “Plant response rating, Sugarbeets” value ([10]; Rate 250 g/ha, Preemergence) was 0 and the “Plant response rating, Velvetleaf” value [11, 16] was 0. For the same compound, the “Velvetleaf plant response rating” value ([11]; Rate 62 g/ha, Postemergence) was 0, the “Velvetleaf plant response rating” value ([11]; Rate 125 g/ha, Postemergence) was 1 and the “Plant response rating, Velvetleaf” value ([11]; Rate 125 g/ha, Preemergence) was 0. For the same compound, the “Plant response rating, Velvetleaf” value ([11]; Rate 250 g/ha, Postemergence) was 1, the “Plant response rating, Velvetleaf” value ([11]; Rate 250 g/ha, Preemergence) was 0 and the “Plant response rating, Wheat” value [12, 16] was 0. For the same compound, the “Wheat plant response rating” value ([12]; Rate 62 g/ha, Postemergence) was 0, the “Wheat plant response rating” value ([12]; Rate 125 g/ha, Postemergence) was 0 and the “Plant response rating, Wheat” value ([12]; Rate 125 g/ha, Preemergence) was 0. For the same compound, the “Plant response rating, Wheat” value ([12]; Rate 250 g/ha, Postemergence) was 0, the “Plant response rating, Wheat” value ([12]; Rate 250 g/ha, Preemergence) was 0 and the “Plant response rating, Wild oats” value (wild oat (Avena fatua); [16]) was 0. For the same compound, the “Wild oats plant response rating” value (wild oat (Avena fatua); Rate 62 g/ha, Postemergence) was 0, the “Wild oats plant response rating” value (wild oat (Avena fatua); Rate 125 g/ha, Postemergence) was 0 and the “Plant response rating, Wild oats” value (wild oat (Avena fatua); Rate 125 g/ha, Preemergence) was 0. The “Plant response rating, Wild oats” value (wild oat (Avena fatua); Rate 250 g/ha, Postemergence) was 0, the “Plant response rating, Wild oats” value (wild oat (Avena fatua); Rate 250 g/ha, Preemergence) was 0 and the “Barnyardgrass plant response rating” value [13, 17] was 0. The “Barnyardgrass plant response rating” value [13, 18] was 0, the “Plant response rating, Barnyardgrass” value [13, 19] was 0 and the “Ducksalad plant response rating” value [14, 17] was 0. For the same compound, the “Ducksalad plant response rating” value [14, 18] was 0, the “Plant response rating, Ducksalad” value [14, 19] was 0 and the “Rice plant response rating” value (rice (Oryza sativa); [17]) was 0. The “Rice plant response rating” value (rice (Oryza sativa); [18]) was 0, the “Plant response rating, Rice” value (rice (Oryza sativa); [19]) was 0 and the “S. Flatsedge plant response rating” value [15, 17] was 0. For the same compound, the “S. Flatsedge plant response rating” value [15, 18] was 0 and the “Plant response rating, S. Flatsedge” value [15, 19] was 0.
